Six compounds from patent publication US11065231B2, “Compounds and methods for the targeted degradation of interleukin-1 receptor- associated kinase 4 polypeptides” (Arvinas Operations, Inc., priority 2017, dated 2021) can be followed below.

In assay [1] the target is T1, IRAK4 (Homo sapiens (Human), UniProt Q9NWZ3). The experiment in a line: Western blots of IRAK4 protein degradation. It counts as cell-based. Conditions: from western blots.
In assay [2] the target is T2, IRAK1 (Homo sapiens (Human), UniProt P51617). Kind of assay: Western blots of IRAK1 protein degradation. It is filed as cell-based.
T2 sequence (P51617 whole entry): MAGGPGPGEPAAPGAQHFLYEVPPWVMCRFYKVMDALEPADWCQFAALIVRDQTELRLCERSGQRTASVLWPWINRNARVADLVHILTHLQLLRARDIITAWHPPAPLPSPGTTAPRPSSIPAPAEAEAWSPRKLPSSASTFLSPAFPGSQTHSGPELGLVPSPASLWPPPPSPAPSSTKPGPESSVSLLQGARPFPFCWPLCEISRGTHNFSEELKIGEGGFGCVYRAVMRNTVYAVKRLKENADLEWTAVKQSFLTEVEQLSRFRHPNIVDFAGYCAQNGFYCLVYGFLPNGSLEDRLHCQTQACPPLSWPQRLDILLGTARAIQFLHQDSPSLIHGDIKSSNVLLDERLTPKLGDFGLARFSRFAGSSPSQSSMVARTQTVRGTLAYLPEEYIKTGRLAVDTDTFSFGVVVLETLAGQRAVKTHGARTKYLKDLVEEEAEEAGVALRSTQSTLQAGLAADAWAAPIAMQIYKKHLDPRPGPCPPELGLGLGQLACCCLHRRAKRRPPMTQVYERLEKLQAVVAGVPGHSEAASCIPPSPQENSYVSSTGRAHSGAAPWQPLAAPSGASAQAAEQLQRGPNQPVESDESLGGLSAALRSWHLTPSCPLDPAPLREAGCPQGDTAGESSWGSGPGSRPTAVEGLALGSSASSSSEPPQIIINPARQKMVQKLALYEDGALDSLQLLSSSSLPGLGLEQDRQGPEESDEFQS
The target of assay [3] is T1, IRAK4. The experiment in a line: Western blot assay for assessing degradation of IRAK4 in MCF7 cells. It is filed as cell-based. The procedure, abridged:
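MCF7 cells were treated 24 h with serially diluted compound (0.1% DMSO final), then lysed in RIPA. IRAK4 and IRAK1 levels were measured by western blot with β-actin probed alongside. Percent degradation compared compound-treated with DMSO-treated lysates.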

The target of assay [4] is T1, IRAK4. Kind of assay: ELISA assay for IRAK4 degradation in MCF7 cells. It is filed as cell-based. Conditions: Table 1, 24 hours. The procedure: Enzyme-Linked Immunosorbent Assay (ELISA) Assay for IRAK4 Degradation.
MCF7 cells, purchased from ATCC (Manassas, Va.), were used at a passage range of 2-19. Cells were prepared and treated with compounds for 24 hours, exactly as described above for the Western blots. The ELISA assay was performed using the kit and instructions described by Abcam (cat. #: ab213472, Abcam Biotechnology, Cambridge, Mass.). Table 1 below provides and compares the ELISA IRAK4 degradation data to the western blot IRAK 4 degradation data for Examples 2, 3, 4, and 5. Furthermore, FIG. 5 is a graph illustrating the ELISA IRAK4 degradation data.

The target of assay [5] is T1, IRAK4. The experiment in a line: Biochemical Z'-Lyte FRET assay for IRAK4 kinase inhibition. Particulars: 2 nM enzyme, 1 mM ATP, 2 μM substrate. The procedure, abridged: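 Z′-Lyte FRET phosphorylation of Ser/Thr 7 peptide (2 µM) by 2 nM recombinant IRAK4 at 1 mM ATP in HEPES pH 7.5 with MgCl2/MnCl2, after 10 min enzyme–compound preincubation; 1 h at room temperature, then 1 h development, 460/530 nm emission. Duplicate 12-point, 3-fold curves from 30 µM; IC50 from percent inhibition against ±100% controls.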

In assay [6] the target is T2, IRAK1. Kind of assay: Western blot assay for degradation of IRAK1 in MCF7 cells. It is filed as cell-based.
The mark [7] stands for this setting: Table 1, 24 hours, read-out: IRAK4 by western DC50.
Where [8] appears, read: Table 5, IRAK4 degradation, 24 hour incubation, read-out: IRAK4 DC50.
Where [9] appears, read: Table 5, IRAK4 degradation, 24 hour incubation, read-out: IRAK4 Dmax (%).
The mark [10] stands for this setting: western blot, 24 hour incubation, read-out: Dmax (IRAK4 degradation).
Where [11] appears, read: western blot, 24 hour incubation, read-out: DC50 (IRAK4 degradation).

T1 sequence (Q9NWZ3 whole entry): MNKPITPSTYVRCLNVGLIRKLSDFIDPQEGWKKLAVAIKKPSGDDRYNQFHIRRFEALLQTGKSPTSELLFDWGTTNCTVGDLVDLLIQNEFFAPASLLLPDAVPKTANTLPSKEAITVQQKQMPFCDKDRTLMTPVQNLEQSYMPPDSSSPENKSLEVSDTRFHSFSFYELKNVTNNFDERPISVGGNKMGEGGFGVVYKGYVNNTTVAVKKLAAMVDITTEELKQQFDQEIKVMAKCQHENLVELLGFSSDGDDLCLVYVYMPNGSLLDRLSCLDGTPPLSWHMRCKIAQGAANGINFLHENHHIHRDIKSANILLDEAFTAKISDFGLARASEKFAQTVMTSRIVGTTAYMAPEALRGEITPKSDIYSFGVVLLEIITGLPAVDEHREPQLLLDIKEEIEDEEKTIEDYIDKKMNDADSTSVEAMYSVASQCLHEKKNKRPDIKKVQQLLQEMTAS

On IRAK4 [1], `O=C1CCC(N2C(=O)c3ccc(OCCOCCN4CCN(Cc5ccc6c(c5)nc(NC(=O)c5cccc(C(F)(F)F)c5)n6C5CCC(CO)CC5)CC4)cc3C2=O)C(=O)N1` (stereo not drawn) [Exemplary Compound 2, N-(5-((4-(2-(2-((2-(2,6-dioxopiperidin-3-yl)-1,3-dioxoisoindolin-5-yl)oxy)ethoxy)ethyl)piperazin-1-yl)methyl)-1-((1s,4s)-4-(hydroxymethyl)cyclohexyl)-1H-benzo[d]imidazol-2-yl)-3-(trifluoromethyl)benzamide] yielded a 50% degradation concentration (DC50) of 9.7 nM and a Dmax of 71%. For the same compound, the “degradation of IRAK1” value on IRAK1 [2] is “no significant degradation was observed”.

Consider `O=C1CCC(N2C(=O)c3ccc(OCCOCCOCCOCCOCCN4CCN(Cc5ccc6c(c5)nc(NC(=O)c5cccc(C(F)(F)F)c5)n6[C@H]5CC[C@@H](CO)CC5)CC4)cc3C2=O)C(=O)N1` (stereo partly drawn) [compound 5, N-(5-((4-(14-((2-(2,6-dioxopiperidin-3-yl)-1,3-dioxoisoindolin-5-yl)oxy)-3,6,9,12-tetraoxatetradecyl)piperazin-1-yl)methyl)-1-((1s,4s)-4-(hydroxymethyl)cyclohexyl)-1H-benzo[d]imidazol-2-yl)-3-(trifluoromethyl)benzamide], for which, at IRAK4 [3] (Table 1, 24 hours), the “IRAK4 by western % degraded” value was determined as 76%. In addition, the figures for the DC50 at IRAK4 [3] (setting [7]) and on IRAK4 [3] (setting [8]) were 40 nM and 30 to 100 nM, respectively. Besides, on IRAK4 [3] (setting [9]), the Dmax was in the range of 50 to 70%. Moreover, at IRAK4 [4], the “IRAK4 by ELISA % degraded” value is reported as 80%. In addition, the 50% inhibitory concentration (IC50) against IRAK4 [5] is < 30 nM.

Consider `O=C1CCC(N2C(=O)c3ccc(OCCOCCOCCOCCN4CCN(Cc5ccc6c(c5)nc(NC(=O)c5cccc(C(F)(F)F)c5)n6[C@H]5CC[C@@H](CO)CC5)CC4)cc3C2=O)C(=O)N1` (stereo partly drawn) [compound 4, N-(5-((4-(2-(2-(2-(2-((2-(2,6-dioxopiperidin-3-yl)-1,3-dioxoisoindolin-5-yl)oxy)ethoxy)ethoxy)ethoxy)ethyl)piperazin-1-yl)methyl)-1-((1s,4s)-4-(hydroxymethyl)cyclohexyl)-1H-benzo[d]imidazol-2-yl)-3-(trifluoromethyl)benzamide], for which the “IRAK4 by western % degraded” value at IRAK4 [3] (Table 1, 24 hours) came out at 87%. The results for the 50% degradation concentration (DC50) on IRAK4 [3] (setting [7]) and on IRAK4 [3] (setting [8]) were 25 nM and < 30 nM, respectively. The maximal degradation (Dmax) on IRAK4 [3] (setting [9]) is > 70%. Further, at IRAK4 [4], the “IRAK4 by ELISA % degraded” value is recorded as 89%. The half-inhibitory concentration (IC50) against IRAK4 [5] is < 30 nM.

As for `O=C1CCC(N2C(=O)c3ccc(OCCOCCN4CCN(Cc5ccc6c(c5)nc(NC(=O)c5cccc(C(F)(F)F)c5)n6C5CCC(CO)CC5)CC4)cc3C2=O)C(=O)N1` (stereo not drawn) [compound 2, N-(5-((4-(2-(2-((2-(2,6-dioxopiperidin-3-yl)-1,3-dioxoisoindolin-5-yl)oxy)ethoxy)ethyl)piperazin-1-yl)methyl)-1-((1s,4s)-4-(hydroxymethyl)cyclohexyl)-1H-benzo[d]imidazol-2-yl)-3-(trifluoromethyl)benzamide], at IRAK1 [6], the IRAK1 protein degradation result is listed as “no significant degradation was observed”. Besides, the “IRAK4 by western % degraded” value on IRAK4 [3] (Table 1, 24 hours) was found to be 71%. Besides, the values for the Dmax at IRAK4 [3] (setting [9]) and on IRAK4 [3] (setting [10]) were 50 to 70% and 71%, respectively. Further, the “IRAK4 by ELISA % degraded” value on IRAK4 [4] is listed as 76%.

Consider `COc1cc2nn(C3CCN(CCOCCOc4ccc5c(c4)CN(C4CCC(=O)NC4=O)C5=O)CC3)cc2cc1NC(=O)c1cccc(C(F)(F)F)n1` (stereo not drawn) [compound 60, N-(2-(1-(2-(2-((2-(2,6-dioxopiperidin-3-yl)-1-oxoisoindolin-5-yl)oxy)ethoxy)ethyl)piperidin-4-yl)-6-methoxy-2H-indazol-5-yl)-6-(trifluoromethyl)picolinamide], for which the figures for the DC50 at IRAK4 [1], at IRAK4 [3] (setting [8]) and at IRAK4 [3] (setting [11]) were 3.5 nM, < 30 nM and 3.5 nM, respectively. Also, the figures for the Dmax at IRAK4 [1] (read-out: Dmax), on IRAK4 [3] (setting [9]) and on IRAK4 [3] (setting [10]) were 73%, 50 to 70% and 73%, respectively. The concentration for half-maximal inhibition (IC50) against IRAK4 [5] is < 30 nM.

In the case of `O=C1CCC(N2C(=O)c3ccc(OCCOCCOCCN4CCN(Cc5ccc6c(c5)nc(NC(=O)c5cccc(C(F)(F)F)c5)n6[C@H]5CC[C@@H](CO)CC5)CC4)cc3C2=O)C(=O)N1` (stereo partly drawn) [compound 3, N-(5-((4-(2-(2-(2-((2-(2,6-dioxopiperidin-3-yl)-1,3-dioxoisoindolin-5-yl)oxy)ethoxy)ethoxy)ethyl)piperazin-1-yl)methyl)-1-((1s,4s)-4-(hydroxymethyl)cyclohexyl)-1H-benzo[d]imidazol-2-yl)-3-(trifluoromethyl)benzamide], the IRAK1 protein degradation result on IRAK1 [6] is on record as “no significant degradation was observed”. Besides, the “IRAK4 by western % degraded” value on IRAK4 [3] (Table 1, 24 hours) came out at 80%. Besides, the DC50 on IRAK4 [3] (setting [7]) was 23 nM; at IRAK4 [3] (setting [8]), < 30 nM; at IRAK4 [3] (setting [11]), 23 nM. In addition, the results for the Dmax on IRAK4 [3] (setting [9]) and at IRAK4 [3] (setting [10]) were > 70% and 80%, respectively. In addition, the “IRAK4 by ELISA % degraded” value at IRAK4 [4] was 86%. Further, the half-inhibitory concentration (IC50) at IRAK4 [5] is < 30 nM.
